This experiment deals with 485368-065-R3-J5-PDC spheroids with HUVEC/MSC, viability. Briefly: Anticancer human tumor 485368-065-R3-J5-PDC patient-derived pancreatic carcinoma cell line growth inhibition [RAS]. The note with it: for viability, T/C: stronger effect = lower value. The source says: RAS pathway inhibitors in Combinations in Complex Spheroids
A high-throughput screen of multi-cell type tumor spheroids was designed to identify active combinations of RAS pathway inhibitors and targeted small molecules. Complex spheroids include a stromal component modeled by human endothelial cells (HUVEC) and fibroblasts modeled by human mesenchymal stem cells (MSCs). The concentration ranges selected for each drug and investigational agent were based upon clinically achievable concentrations if the clinical Cmax of the agent was known.
Compounds. The drugs and investigational agents: abemaciclib (NSC768073), cobimetinib (NSC768068), divarasib (GDC6063, NSC841802), docetaxel (NSC628503), GDC-1971 (RLY-1971, NSC841576), gemcitabine (NSC613327), inavolisib (NSC800729), ipatasertib (NSC767898), KB-0742 (NSC834161), MRTX-1133 (NSC836407), osimertinib (NSC779217), RMC-4630 (NSC839698), RMC-6236 (NSC851965), RMC-6291 (NSC852671), Ro-3306 (NSC812927), sapanisertib (NSC764658), SN-38 (NSC673596), staurosporine (NSC755774), SY5609 (NSC837396), and tovorafenib (DAY101, NSC766906), were obtained from the National Cancer Institute (NCI) Developmental Therapeutics Program Chemical Repository. The FDA-approved anticancer drug set is available from the NCI Developmental Therapeutics Program. […] The stock solutions were prepared in dimethyl sulfoxide (DMSO, Sigma-Aldrich, St. Louis, MO, cat. D2650) at 800-fold the tested concentration and stored at -70 degrees C prior to their use. All drugs and investigational agents were tested over a range starting from a high concentration at or near the clinical Cmax and decreasing in half-log increments. If the clinical Cmax for an agent had not been determined, the highest concentration tested was 10 microM.
Cell Culture. All cells were maintained in an incubator at 37 degrees C and 5% CO2 with 95% humidity. The PDC lines were cultured according to standard operating procedures established by the NCI PDMR. All PDCs were thawed and cultured in Matrigel-coated flasks prepared with a working solution of 1X Ham's F-12 nutrient mix, without supplementation (Invitrogen, Waltham, MA, cat. 11765054), 100 U/mL penicillin-streptomycin (Invitrogen, cat. 15140122), and 2.5% Matrigel (Corning Inc., Corning, NY, cat. 354248) for the first three passages. The 362531-283-R-J2-PDC and 782815-120-R-J1-PDC lines were cultured in 6C/Colon 1B media, which includes advanced DMEM/F-12 (Thermo Fisher Scientific, cat. 12634028), 10 mM HEPES (Thermo Fisher Scientific, cat. 15630080), 1X GlutaMAX supplement (Thermo Fisher Scientific, cat. 35050061), 0.1 mg/mL primocin (InvivoGen, San Diego, CA, cat. ant-pm-2), 10% defined fetal bovine serum, heat inactivated (HyClone Laboratories Inc., Logan, UT, cat. SH30070.03HI), 50% L-WRN conditioned media (ATCC, cat. CRL-3276), 1.25 mM N-Acetyl-L-cysteine (Sigma-Aldrich, cat. A9165), 10 mM nicotinamide (Sigma-Aldrich, cat. N0636), 1X B-27 supplement (Thermo Fisher Scientific, cat. 17504044), 1X N-2 supplement (Thermo Fisher Scientific, cat. 17502048), 50 ng/mL human EGF (Thermo Fisher Scientific, cat. PHG0311), and 10 microM Y-27632 dihydrochloride (Tocris Bioscience, cat. 1254). The K12877-001-R-J1-PDC line was cultured in 6I media, which includes all 6C/Colon 1B media plus 10 ng/mL human FGF-10 (PeproTech, cat. 100-26), 1 ng/mL human FGF-2 (PeproTech, cat. 100-18B), 1 µM prostaglandin E2 (Tocris Bioscience, cat. 2296), […] hydrocortisone (Sigma-Aldrich, cat. H4001), and […] bovine insulin (Sigma-Aldrich, cat. I6634). The K86415-001-R-J1-PDC line was cultured in 6D media, which includes all 6C/Colon 1B media components minus the L-WRN conditioned media. The 485176-168-R4-J1-PDC was cultured in PANC media, which includes all 6C/Colon 1B media plus 100 ng/mL human FGF-10 (PeproTech, cat. 100-26), 500 nM SB-431542 (Selleckchem, cat. S1067), and 10 nM gastrin (Tocris Bioscience, cat. 3006). […]

The mark [1] stands for this setting: compound alone, run of 07/09/2024.

In general, viability, T/C refers to the result in the treated group divided by that in the control group, in per cent. Broadly, the IC50 is the concentration that gives 50% inhibition.

Some results are limits rather than exact numbers.
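Further: spheroids exposed to agents for seven days before readout.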

With `C=CC(=O)N1CCN(c2nc(OCC3CCCN3C)nc3c(F)c(-c4nc(N)cc(C)c4C(F)(F)F)c(Cl)cc23)C(C)C1` (stereo not given), the viability, T/C was 106% [middle of 12 runs] (compound 0.00316 µM); 101% (compound 0.01 µM, compound 0.0316 µM); 98.5% (compound 0.01 µM, compound 0.1 µM); 111% (compound 0.01 µM, compound 0.316 µM); 97% (compound 0.01 µM, compound 1 µM); 104% [middle of 12 runs] (compound 0.01 µM). For the same compound, the viability, T/C is, setting by setting: (compound 0.0316 µM, compound 0.00316 µM) 102%; (compound 0.0316 µM, compound 0.01 µM) 110%; (compound 0.0316 µM, compound 0.1 µM) 107%; (compound 0.0316 µM, compound 0.316 µM) 107%; (compound 0.0316 µM, compound 1 µM) 113%; (compound 0.0316 µM) 106% [middle of 13 runs]. Moreover, the viability, T/C was 116% (compound 0.1 µM, compound 0.00316 µM); 112% (compound 0.1 µM, compound 0.01 µM); 99.1% (compound 0.1 µM, compound 0.0316 µM); 107% (compound 0.1 µM, compound 0.316 µM); 94% (compound 0.1 µM, compound 1 µM); 101% [middle of 13 runs] (compound 0.1 µM). The viability, T/C is 103% (compound 0.316 µM, compound 0.00316 µM); 104% (compound 0.316 µM, compound 0.01 µM); 102% (compound 0.316 µM, compound 0.0316 µM); 108% (compound 0.316 µM, compound 0.1 µM); 100% (compound 0.316 µM, compound 1 µM); 106% [middle of 13 runs] (compound 0.316 µM). The viability, T/C is 112% (compound 1 µM, compound 0.00316 µM); 106% (compound 1 µM, compound 0.01 µM); 108% (compound 1 µM, compound 0.0316 µM); 101% (compound 1 µM, compound 0.1 µM); 96.7% (compound 1 µM, compound 0.316 µM); 101% [middle of 13 runs] (compound 1 µM). In addition, the 50% inhibitory concentration (IC50) runs as follows: (compound alone, run of 07/15/2024) above 1000 nM; (curve of compound) above 1000 nM.
`C=CC(=O)Nc1cc(Nc2nccc(-c3cn(C)c4ccccc34)n2)c(OC)cc1N(C)CCN(C)C`: the viability, T/C (compound 0.00316 µM) is 108% [middle of 4 runs]; the viability, T/C (compound 0.01 µM) was 94.1% [middle of 4 runs]; the viability, T/C (compound 0.0316 µM) was 109% [middle of 4 runs]; the viability, T/C (compound 0.1 µM) is 106% [middle of 4 runs]; the viability, T/C (compound 0.316 µM) was 104% [middle of 4 runs]; the viability, T/C (compound 1 µM) is 97.5% [middle of 4 runs]. For the same compound, the half-maximal inhibitory concentration (IC50) (curve of compound) is above 1000 nM.
As for `CC(C)n1nc(-c2ccc3oc(N)nc3c2)c2c(N)ncnc21`, the viability, T/C runs as follows: (compound 0.000316 µM) 106% [middle of 4 runs]; (compound 0.001 µM) 91.4% [middle of 4 runs]; (compound 0.00316 µM) 89% [middle of 4 runs]; (compound 0.01 µM) 65.8% [middle of 4 runs]; (compound 0.0316 µM) 42.8% [middle of 4 runs]; (compound 0.1 µM) 23.6% [middle of 4 runs]. In addition, the IC50 (curve of compound) is 22.7 nM [middle of 4 runs].
Turning to `CCN1CCN(Cc2ccc(Nc3ncc(F)c(-c4cc(F)c5nc(C)n(C(C)C)c5c4)n3)nc2)CC1`, the viability, T/C is, setting by setting: (compound 0.00316 µM) 99.7% [middle of 4 runs]; (compound 0.01 µM) 91.6% [middle of 4 runs]; (compound 0.0316 µM) 90.2% [middle of 4 runs]; (compound 0.1 µM) 75.6% [middle of 4 runs]; (compound 0.316 µM) 59.6% [middle of 4 runs]; (compound 1 µM) 45.4% [middle of 4 runs].
As to `CCc1c2c(nc3ccc(O)cc13)-c1cc3c(c(=O)n1C2)COC(=O)[C@]3(O)CC`, the viability, T/C reads like this: (compound 0.000949 µM) 86.9% [middle of 4 runs]; (compound 0.003 µM) 34.5% [middle of 4 runs]; (compound 0.00949 µM) 14.6% [middle of 4 runs]; (compound 0.03 µM) 7.01% [middle of 4 runs]; (compound 0.0949 µM) 4.37% [middle of 4 runs]; (compound 0.3 µM) 3.18% [middle of 4 runs]. In addition, the 50% inhibitory concentration (IC50) (curve of compound) is 2.19 nM [middle of 4 runs].
For `CCn1c(-c2cc(N3CCN(C)CC3)cnc2C(C)OC)c2c3cc(ccc31)-c1csc(n1)CC(NC(=O)C1CC1C)C(=O)N1CCCC(N1)C(=O)OCC(C)(C)C2` (stereo not given), the viability, T/C was 35.5% [middle of 8 runs] (compound 0.000949 µM); 22.9% [middle of 8 runs] (compound 0.003 µM); 17.3% [middle of 8 runs] (compound 0.00949 µM); 12.7% [middle of 8 runs] (compound 0.03 µM); 10.3% [middle of 7 runs] (compound 0.0949 µM); 8.88% [middle of 8 runs] (compound 0.3 µM). The IC50 under setting [1] is below 0.949 nM.
In the case of `CCn1c(-c2cccnc2C(C)OC)c2c3cc(ccc31)N1CCOC(CC(NC(=O)C(C(C)C)N(C)C(=O)C3(F)CCN(C(=O)C#CC(C)(C)N(C)C)CC3)C(=O)N3CCCC(N3)C(=O)OCC(C)(C)C2)C1` (stereo not given), the viability, T/C (compound 0.000949 µM) was 102% [middle of 8 runs]; the viability, T/C (compound 0.003 µM) is 103% [middle of 8 runs]; the viability, T/C (compound 0.00949 µM) is 102% [middle of 8 runs]; the viability, T/C (compound 0.03 µM) is 97.4% [middle of 8 runs]; the viability, T/C (compound 0.0949 µM) is 98% [middle of 8 runs]; the viability, T/C (compound 0.3 µM) is 96.9% [middle of 8 runs]. The concentration for half-maximal inhibition (IC50) under setting [1] is above 300 nM.
For the compound `O=C(c1ccc(F)c(F)c1Nc1ccc(I)cc1F)N1CC(O)([C@@H]2CCCCN2)C1`, the viability, T/C was 98.9% [middle of 4 runs] (compound 0.00316 µM); 69.2% [middle of 4 runs] (compound 0.01 µM); 54.5% [middle of 4 runs] (compound 0.0316 µM); 36.6% [middle of 4 runs] (compound 0.1 µM); 26.7% [middle of 4 runs] (compound 0.316 µM); 11.3% [middle of 4 runs] (compound 1 µM). In addition, for the setting “curve of compound”, the IC50 was 42.7 nM [middle of 4 runs].

Source of the values: PubChem BioAssay AID2060902 (Molecular Pharmacology Branch, DTP, NCI, 2025).
